Patent US20120295893A1, “COMPOSITIONS AND METHODS OF COUNTERACTING RESIDUAL SEDATIVE EFFECTS OF SLEEP/ HYPNOTIC DRUGS” (COERULEUS LTD., priority 2009, published 2012)
Values after ≈ are worked out from the molar mass of the structure shown. “Also recorded” adds a separate entry of the source. Read-outs that look alike come from different tables or passages of the source.

Legend:
[1] = cited from earlier work
[2] = test system: sleep/hypnotic effect of zolpidem or brotizolam; assay: Clinical study: digit symbol substitution test (DSST)
[3] = Passive transdermal paper feasibility (3M empirical model)
Method: The feasibility of transdermal delivery was evaluated for flumazenil and zolpidem. The target transdermal dose for flumazenil used in this assessment was 0.6 mg/hr.
This study addresses the feasibility of passively delivering a drug from a transdermal patch based on requirements specified for flumazenil and thereby provides evaluation of drug diffusion across the skin at a feasible rate. […] The assessment involves first qualitatively assessing the physicochemical properties and target transdermal dose of the drug by comparing them to the properties of an ideal passive transdermal drug.
This maximum limit is defined empirically by a 3M model, which can be used to estimate the largest flux and minimum patch size of the proposed drug product.
The target transdermal flux is calculated by dividing the target transdermal dose by the patch area. Using Fick's Law of Diffusion, the steady-state transdermal flux (μg/cm^2/hr) of a drug across the stratum corneum, j, is described by Equation 1: […]
where D is the diffusion coefficient of the drug in the stratum corneum (cm^2/hr), 1 is the thickness of the stratum corneum, P is the permeability coefficient (cm/hr), and Δc is the drug's concentration gradient across the stratum corneum (μg/mL), which is commonly approximated in the literature, under infinite sink conditions, by the drug's solubility in octanol (coct).
The target drug flux is estimated by dividing the target daily transdermal dose (mg/day) by the target patch size (cm^2). If the target patch size is not defined, then a value of 40 cm^2 is used. Then, using equation (1), the target permeability coefficient can be estimated by dividing the target drug flux by the drug's solubility in octanol.

[4] = test system: sleep/hypnotic effect of zolpidem or brotizolam; assay: Clinical study: immediate Word Recall Test (iWRT)
[5] = Gel electrophoresis migration in agarose gel; type: physicochemical; conditions: pH 4.5 compared with pH 5.5 and 7.2; 0.66 mg/ml, 1% gel, positive electrode
Method: The following parameters were applied in order to evaluate migration in agarose gel (1%; 3 mm thick):
Total Width: 15.5 cm; Length: 15 cm; No of Lanes: 4; No of sections: 10; Buffer solution used: TAE (Tris […], Acetic acid, EDTA); Well vol: 10 ul/well; Voltage used: 50V-100V DC; and Run Time: 1 hr.
1. 0.66 mg/ml flumazenil pH 4.5—Positive Electrode 2. 0.66 mg/ml flumazenil pH 5.5—Positive Electrode 3. 0.66 mg/ml flumazenil in tween80 pH 7.2—Positive Electrode

[6] = cited from earlier work; remark: listed apart in the source
[7] = test system: sleep/hypnotic effect of zolpidem or brotizolam; assay: Clinical study: overall response in performance tasks, flumazenil versus placebo
[8] = test system: sleep/hypnotic effect of zolpidem or brotizolam; assay: Clinical study: Profile Of Mood States (POMS) Brief form
[9] = Clinical study: vital signs and safety assessments
[10] = test system: sleep/hypnotic effect of zolpidem or brotizolam; assay: Clinical study: Visual Analogue Scale (sleepiness/vigilance, ability to focus, effectiveness)
[11] = high dose FLUMUP 1.6 mg, 10 participants
[12] = N = 20, sublingual 0.4 mg or 1.6 mg, change from post-hypnotic baseline

## CCOC(=O)c1ncn2c1CN(C)C(=O)c1cc(F)ccc1-2 [Flumazenil, ethyl 8-fluoro-5,6-dihydro-5-methyl-6-oxo-4H-imidazo[1,5-a] [1,4]benzodiazepine-3-carboxylate]
[1]; for IV 0.2 mg
  effective plasma level: 5 to 20 ng/mL
[1]; from the oral administration
  time to peak plasma level: 20 to 90 min
[1]; in vivo
  plasma half life time: 7 to 15 min
  protein binding: 40%
  volume distribution: 0.63 to 1.6 L/kg
[1]; intravenous
  onset of action: few seconds to two minutes
  time of peak effect post administration: six to ten minutes
[1]; oral delivery, high hepatic elimination
  bioavailability: 16%
[1]; oral dose of 200-600 mg
  plasma level: 143 to 439 ng/mL
[2]; N = 20, 0.4 or 1.6 mg
  DSST, Δ parameter 20 min aft spray: 17.7 ± 2.3
  DSST, Δ parameter 60 min aft spray: 22.4 ± 3.0
[2]; [11]
  DSST, % difference Flum vs. P: 92%
  DSST, Δ parameter 20 min aft spray: 23.2 ± 3.4
  DSST, Δ parameter 60 min aft spray: 30.4 ± 3.6
[3]
  log P vs. Ideal transdermal drug (1 to 3): +
[3]; Table 20A
  Ionization vs. Ideal transdermal drug (Neutral): +
[3]; Table 21
  Ionization vs. Ideal transdermal drug (Neutral): +
[4]; N = 20, 0.4 or 1.6 mg
  iWRT, Δ parameter 20 min aft spray: 4.2 ± 0.8
  iWRT, Δ parameter 60 min aft spray: 5.4 ± 1.1
[4]; [11]
  iWRT, % difference Flum vs. P: 92%
  iWRT, Δ parameter 20 min aft spray: 5.5 ± 0.9
  iWRT, Δ parameter 60 min aft spray: 6.1 ± 1.2
[5]
  migration in agarose gel: most efficient
[6]; SciFinderScholar
  pKa: 1.14±0.2
[6]; Table 20A
  Ionization: Neutral
  log P: 1
[6]; Table 21
  Ionization: Neutral
[6]
  solubility (in words): sparingly soluble
  solubility in Propylene glycol, PEG 300 and PEG 400: ~23 mM (≈ 6980 µg/mL)
[6]; maximum
  solubility in pure ethanol: ~33 mM (≈ 10000 µg/mL)
[6]; product information
  pKa: 1.78
[7]; first 10 subjects, flumazenil 0.4 mg, brotizolam 0.25 mg or zolpidem 10 mg
  difference between flumazenil and placebo, low dose: no significant differences; also recorded: could not be better reversed
[7]; last 10 participants, flumazenil 1.6 mg, doubled hypnotic dose
  response: differences between flumazenil and placebo: over 30%
[7]; sublingual spray
  duration of effect following administration: at least 60 min
  start of effect following administration: ≤ 20 min
[8]; N = 20, 0.4 or 1.6 mg
  POMS- fatigue, Δ parameter 20 min aft spray: −3.7 ± 0.9
  POMS- fatigue, Δ parameter 60 min aft spray: −5.5 ± 1.0
  POMS-Alertness, Δ parameter 20 min aft spray: 3.5 ± 0.9
  POMS-Alertness, Δ parameter 60 min aft spray: 5.3 ± 1.2
[8]; [11]
  POMS- (first POMS line, r13), % difference Flum vs. P: 72%
  POMS- (first POMS line, r13), Δ parameter 20 min aft spray: −5.8 ± 1.6
  POMS- (first POMS line, r13), Δ parameter 60 min aft spray: −8.2 ± 1.6
  POMS- (second POMS line, r14), % difference Flum vs. P: 93%
  POMS- (second POMS line, r14), Δ parameter 20 min aft spray: 4.3 ± 1.5
  POMS- (second POMS line, r14), Δ parameter 60 min aft spray: 7.2 ± 2.0
[9]; N = 20, 0.4 or 1.6 mg
  Diastolic BP, Δ parameter 20 min aft spray: −0.5 ± 1.5
  Diastolic BP, Δ parameter 60 min aft spray: −2.3 ± 1.2
  Systolic BP, Δ parameter 20 min aft spray: −5.5 ± 2.3
  Systolic BP, Δ parameter 60 min aft spray: −6.1 ± 2.7
[9]; [12]
  Pulse, Δ parameter 20 min aft spray: −2.9 ± 1.3
  Pulse, Δ parameter 60 min aft spray: −3.4 ± 1.6
[9]; both doses of flumazenil, n=20
  complaints of unusual sensation, pain, nausea, abdominal pain or other side effect: None of the participants complained
[9]; [11]
  Diastolic BP, % difference Flum vs. P: 70%
  Diastolic BP, Δ parameter 20 min aft spray: −2.0 ± 1.9
  Diastolic BP, Δ parameter 60 min aft spray: −2.6 ± 1.8
  Pulse, % difference Flum vs. P: 8%
  Pulse, Δ parameter 60 min aft spray: −1.2 ± 2.7
  Systolic BP, % difference Flum vs. P: 59%
  Systolic BP, Δ parameter 20 min aft spray: −4.7 ± 3.5
  Systolic BP, Δ parameter 60 min aft spray: −1.7 ± 4.2
[9]; high dose FLUMUP 1.6 mg, 10 participants, doubled hypnotic dose
  Pulse, Δ parameter 20 min aft spray: −0.4 ± 1.9
[9]; sublingual 0.4 mg and 1.6 mg, n=20
  vital signs (pulse, respiration), temperature and blood pressure: within normal values
[9]; sublingual 0.4 mg and 1.6 mg, with respect to placebo, n=20
  physical, neurological, mouth and buccal, cardiac and lung examination, ECG: not adversely affected
[10]; N = 20, 0.4 or 1.6 mg
  Effectiveness, Δ parameter 20 min aft spray: 2.9 ± 0.6
  Effectiveness, Δ parameter 60 min aft spray: 4.5 ± 0.6
  Focus Ability, Δ parameter 20 min aft spray: 2.7 ± 0.5
  Focus Ability, Δ parameter 60 min aft spray: 4.3 ± 0.6
  Vigilance, Δ parameter 20 min aft spray: 3.0 ± 0.6
  Vigilance, Δ parameter 60 min aft spray: 4.7 ± 0.6
[10]; [11]
  Effectivenes, % difference Flum vs. P: 61%
  Effectivenes, Δ parameter 20 min aft spray: 3.8 ± 0.7
  Effectivenes, Δ parameter 60 min aft spray: 5.5 ± 0.7
  Focus Ability, % difference Flum vs. P: 59%
  Focus Ability, Δ parameter 20 min aft spray: 3.7 ± 0.7
  Focus Ability, Δ parameter 60 min aft spray: 5.8 ± 0.8
  Vigilance, % difference Flum vs. P: 69%
  Vigilance, Δ parameter 20 min aft spray: 3.6 ± 0.8
  Vigilance, Δ parameter 60 min aft spray: 5.8 ± 0.8
